Source: patent publication US10512624B2, “Long-chain amphipathic dicarboxylic acids for treatment of diabetes type-1” (Syndromex Ltd., priority 2016, dated 2019)
Like-named read-outs stand apart in the source and are kept apart here.

Tests used:
STZ diabetic rats = test: Anti-diabetic efficacy in streptozotocin (STZ) diabetic rats (FBG, IPGTT, IPITT, fluid balance, insulin/glucagon content); assay type: in vivo, rat
Method: Male Sprague-Dawley (SD) rats weighing 250-275 gr were fed ad libitum (Harlan Teklad 2018), had free access to water, and were kept on a 12:12 h light:dark cycle. Experimental type 1 diabetes (T1D) was induced in overnight fasted rats by a single intra-peritoneal injection of streptozotocin (STZ, 60 mg/kg body weight, Sigma Aldrich) freshly prepared in 0.1 M of cold citrate buffer (pH 4.5), followed by oral 10% glucose solution for the next 24 hours to overcome STZ-induced acute hypoglycemia. STZ diabetic rats (defined as having a fasting blood glucose (FBG) level higher than 300 mg/dl) were selected for further studies.
(§1) SHAM (control) rats were injected with 0.1 M of cold citrate buffer (pH 4.5). STZ diabetic or SHAM rats were dosed twice daily by gavage (orally) with 1% CMC (Sigma Aldrich C5678), or with HOOC—C(CH3)2—(CH2)12—C(CH3)2—COOH (2,2,15,15-tetramethylhexadecane-1,16-dioic acid) also termed herein “MEDICA16αα”, “Medica16αα” or M16αα(15 mg/kg body weight) suspended in 1% CMC, or injected intraperitoneal (i.p.) with Neutral Protamine Hagedorn (NPH) insulin (3 u/kg body weight b.i.d), as indicated.
Administering a combination of Medica16αα and insulin was performed by treating STZ diabetic rats (FBG >300 mg/dl) with oral MEDICA16αα(15 mg/kg b.i.d) for five consecutive days, then MEDICA16αα-responsive rats were further treated with MEDICA16αα(15 mg/kg b.i.d) for 10 additional consecutive days (“STZ/MEDICA Res”), and MEDICA16αα non-responsive rats (FBG >250 mg/dl) were further treated for 10 additional consecutive days with either insulin Neutral Protamine Hagedorn (NPH) (3 u/kg b.i.d subcutaneously) (“STZ/NPH”), or with insulin NPH (3 u/kg b.i.d subcutaneously in combination with oral MEDICA16αα(15 mg/kg b.i.d) (“STZ/MEDICA NPH”).
(§2) Tail vein FBG was verified daily by a glucometer (Glucometer®, Accu-Check® Performa, Roche Diagnostics). Urine secretion, food and water consumption were measured in standard metabolic cages (Tecniplast™ Metabolic Cage Systems for Rodents) for 48 hour periods. Samples were collected and recorded every 12 hour.
Overnight fasted rats were injected i.p (1 gr glucose/kg bw) with 20% dextrose solution (Teva Medical). Tail vein blood was sampled on 0, 30, 60, 90 and 120 minutes following glucose injection.
Fasted rats (5 hours fast) were injected i.p (2 u/kg bw) with HumulinR insulin (Eli Lilly). Tail blood glucose levels were measured by glucometer at 0, 15, 30, 60, and 120 min following insulin injection.
Pancreas and plasma insulin and glucagon content were determined by insulin (Millipore, Cat #RI-13K) and glucagon (Millipore, Cat # GL-32K) radioimmunoassay (RIA) kits. cAMP levels were measured by cAMP kit (Arbor Assays, DetectX Cat # K019-H1).

[1] = tested on: SHAM (control) non-diabetic rats; test: Fasting blood glucose in SHAM (control) non-diabetic rats; assay type: in vivo, rat; settings: oral 15 mg/kg b.i.d
Method: as §1, §2

NOD mice [2] = test: IPGTT in pre-diabetic NOD mice; assay type: in vivo, mouse; settings: 14-week and 24-week old NOD mice
Method: Overnight fasted NOD mice were injected i.p (2 gr/kg bw) with standard 20% dextrose solution. Tail vein blood was sampled on 0, 15, 30, 60, 90 and 120 minutes. Blood glucose was measured by glucometer. Plasma insulin prior to and 30 min following glucose injection was measured using Ultrasensitive Mouse Insulin ELISA kit (Crystal Chem).

NOD mice [3] = test: Islet insulitis scoring in NOD mice; assay type: in vivo, mouse; settings: 14-week old pre-diabetic NOD mice
From the text: Head of pancreas of NOD mice was sampled, fixed in 4% buffered formalin, embedded in paraffin, and […] sections were stained with hematoxylin/eosin. Insulitis scores 0 to 4 were verified by the percentage of intra-islet mononuclear granulation (“0”, no intra-islet mononuclear cell infiltration; “1”, <25% of islet being infiltrated with mononuclear cell granulation; “2”, 25%-50%; “3”, 50-75%; “4”, >75%), in 30 to 40 islets per pancreas.

[4] = Plasma MEDICA16αα exposure in STZ diabetic rats (LC/MS); assay type: in vivo; settings: Sprague-Dawley, rat, po, 15 mg/kg, oral 15 mg/kg b.i.d, data not shown
Method: Plasma aliquots of 100 μl were vortex-mixed with 50 μl of formic acid:methanol (1:1 v/v) solution containing an internal standard, extracted into n-hexane, centrifuged, and the hexane layer was evaporated to dryness. The residue was reconstituted in the mobile phase and injected into the LC/MS system [Waters Micromass ZQ mass spectrometer (Waters Co.)]. LC/MS conditions were as follows:)(Bridge MS; RP8 column, 3.5 μm, 2.1×100 mm column (Waters Co.); column temperature was 35° C.; isocratic mobile phase, methanol:water (82:18 v/v) containing 0.1% formic acid, at a flow rate of 0.2 ml/min; detector tuned to 500 L/hr nitrogen flow; source temperature; 400° C.; cone voltage 30V; ionization mode ESI+; 365 and 393 m/z for MEDICA16αα and the internal standard, respectively. Calibration curves were linear and validated in the 100 ng/ml to 5000 ng/ml range, with accuracy of 7-9% relative error and precision of 8-10% relative standard deviation.

hypoglycemia [1]: did not result in hypoglycemia
concentration at 10 days ([4]; read-out: plasma MEDICA16αα exposure, non-responsive rats): 26 ± 8.7 ng/mL
concentration at 10 days ([4]; read-out: plasma MEDICA16αα exposure, responsive rats): 22.5 ± 4.4 ng/mL
Structure (SMILES): CC(C)(CCCCCCCCCCCCC(C)(C)C(=O)O)C(=O)O [MEDICA16αα, 2,2,15,15-tetramethylhexadecane-1,16-dioic acid]
pancreatic and/or plasma insulin and glucagon content (STZ diabetic rats; STZ diabetic rats, stand-alone treatment): not accounted for by significant increase in pancreatic and/or plasma insulin, neither by significant decrease in glucagon content
fluid consumption and excretion (STZ diabetic rats; STZ/MEDICA Res rats, stand-alone): partial decrease
blood glucose level in i.p glucose tolerance test (IPGTT) (STZ diabetic rats; STZ/MEDICA Res rats, stand-alone 15 mg/kg b.i.d): amelioration in blood glucose level
STZ diabetic rats in which FBG was normalized (FBG<250 mg/dL) (STZ diabetic rats; oral 15 mg/kg b.i.d, 10 consecutive days, stand-alone (no insulin), all-or-none response): about 40%
treated STZ diabetic rats that remained non responsive (FBG >250 mg/dl) (STZ diabetic rats; oral 15 mg/kg b.i.d, stand-alone): 60%
pre-diabetic IPGTT profile (NOD mice [2]): normalizing
glucose-stimulated plasma insulin (NOD mice [2]; first 30 min of IPGTT): remained unaffected
islet insulitis rankings versus non-treated (NOD mice [3]): essentially similar
